Data: US5015628A, “Anticariogenic phosphopeptides” (The University of Melbourne, priority 1986, dated 1991)
Where a SMILES comes first, the peptide text is derived from it. [ ]: non-standard residue; d: D form. pS = N[C@@H](COP(=O)(O)O)C(=O)O

Assay: Intra-Oral Caries Test (Test 2)
Format: in vivo
Conditions: plaque exposed twice a day to the peptide T1 solution
Experimental: The anticariogenicity of phosphopeptide T1 was determined using a modification of the intra-oral caries test of Koulourides and Ostrom (Caries Res. 10:442-482, 1976). Enamel slabs were inset in a removable intra-oral appliance to simulate an approximal area. This was done on both sides of the removable appliance (left and right). The appliance was worn to allow plaque accumulation in the simulated approximal areas. Eight times a day the appliance was removed and placed in a solution at 37° C. The solution was 2% w/v sucrose, 2% w/v glucose, 140 mM KCl, 20 mM NaCl at pH 7.0. Twice a day the right side enamel slabs received exposure to a solution containing 1.8% w/v calcium phosphate T1 in 140 mM KCl, 20 mM NaCl at pH 7.0, while the left side received only the salt solution. At the completion of the experiment the enamel slabs were removed, sectioned and subjected to microradiography and microhardness testing. […] The results were confirmed by microhardness analysis. Plaque was also taken from both sides of the appliance and analysed for calcium phosphate, serine phosphate and peptide T1 using a competitive, quantitative, enzyme-linked immunosorbent assay (ELISA) utilising monoclonal antipeptide T1 antibodies.

level of peptide in plaque (ELISA): at least 0.4 % w/wet wt of plaque
SMILES: CC[C@H](C)[C@H](NC(=O)[C@H](COP(=O)(O)O)NC(=O)[C@H](CCC(=O)O)NC(=O)[C@H](C)NC(=O)[C@H](CCC(=O)O)NC(=O)[C@H](CCSC)NC(=O)[C@@H](N)CCC(=O)O)C(=O)N[C@@H](COP(=O)(O)O)C(=O)N[C@@H](COP(=O)(O)O)C(=O)N[C@@H](COP(=O)(O)O)C(=O)N[C@@H](CCC(=O)O)C(=O)N[C@@H](CCC(=O)O)C(=O)N[C@H](C(=O)N[C@H](C(=O)N1CCC[C@H]1C(=O)N[C@@H](CC(N)=O)C(=O)N[C@@H](COP(=O)(O)O)C(=O)N[C@H](C(=O)N[C@@H](CCC(=O)O)C(=O)N[C@@H](CCC(N)=O)C(=O)N[C@@H](CCCCN)C(=O)O)C(C)C)C(C)C)[C@@H](C)CC [T1, Glu-Met-Glu-Ala-Glu-Pse-Ile-Pse-Pse-Pse-Glu-Glu-Ile-Val-Pro-Asn-Pse-Val-Glu-Gln-Lys] (H-EMEAE[pS]I[pS][pS][pS]EEIVPN[pS]VEQK-OH)
